Assay results published in patent US6603058B1, “Non-human animal model for obesity and uses thereof” (Oklahoma Medical Research Foundation, priority 1998, dated 2003).

Experiments:
Assay type in all cases: in vivo, mouse
[1] = Weight change and food intake in wildtype and POMC null mutant mice under standard diet, standard diet plus MSH analog, or high fat diet; conditions: for food intake, standard diet v. standard diet & MSH analog treatment / weight change, standard diet v. standard diet & MSH analog treatment: MSH analog i.p. 1 or 2 μg once daily
Experimental: P values were determined by ANOVA. If the major component of weight regulation through the melanocortinergic pathway was the regulation of feeding behavior, the observed changes in body weight in POMC null mutant mice should be paralleled by a similar pattern in food uptake. This, however, was not observed (FIGS. 5B and 5D and Table 1).

[2] = Daily intraperitoneal MSH analog treatment of POMC homozygous mutant and wildtype female mice: body weight change and food intake; conditions: for weight loss, share of excess weight: mutant female mice, 1 microgram (~1 nmol) i.p. daily; for weight loss in wildtype mice: wildtype non-obese littermates, peripheral (i.p.) daily treatment
Experimental: To initially test for the effect of peripheral melanocortins on weight change, we selected the stable agonist [Ac-Cys^4, D-Phe^7, Cys^10] αMSH (4-13)(described in Cody et al., 1985, J. Med. Chem. 28, 583-588; incorporated herein by reference in its entirety). Briefly, [Ac-Cys^4,D-Phe^7, Cys^10] α-MSH (4-13) amide was obtained from Peninsula Laboratories, CA. Lyophilized powder was dissolved in water at 1 mg/ml, which was diluted in PBS to 10 μg/mL. During the experiments, mice were maintained on a normal 12h/12h light/dark cycle with food and water ad libitum. Mice were fed standard laboratory rodent diet (#5001).
In order to see whether the α-MSH analog has an effect on food intake, we compared weight change and food intake in these mice for one week (see bars in FIGS. 4A and 4B) under MSH analog treatment and after MSH analog treatment was stopped (FIGS. 4C and 4D). During one week under MSH analog treatment mutant mice lost 0.5 g, while wildtype littermates gained 0.3 g; the food intake during this time was equivalent in both groups (20.7 g in wildtypes, and 22.7 g in mutants).

[3] = Coat pigmentation of mice treated with MSH for two weeks
Excerpt: An effect of MSH could also be seen on coat pigmentation. […] Yellow coat pigmentation gradually reappeared after MSH treatment was terminated (data not shown).

[4] = both on standard diet & MSH analog treatment

[Ac-Cys^4,D-Phe^7, Cys^10] α-MSH (4-13) amide [MSH analog]
food intake, wildtype v. mutant [1, 4]: ↑
weight change, wildtype v. mutant [1, 4]: ↓
food intake, standard diet v. standard diet & MSH analog treatment ([1]; mutant mice): decreases food intake and ↓
weight change, standard diet v. standard diet & MSH analog treatment ([1]; mutant mice): lose excess weight and ↓
food intake, standard diet v. standard diet & MSH analog treatment ([1]; wildtype mice): decreases food intake and ↓
weight change, standard diet v. standard diet & MSH analog treatment ([1]; wildtype mice): ←→
weight loss, share of excess weight ([2]; by 2 weeks): 46 % of excess weight
weight loss, share of excess weight ([2]; within one week): 38 % of excess weight
body weight gained in one week after MSH analog treatment had been stopped for two weeks ([2]; mutant mice): 1.7 g
food intake during one week under MSH analog treatment ([2]; mutant mice): 22.7 g
food intake in one week after MSH analog treatment had been stopped for two weeks ([2]; mutant mice): 35.7 g
time after stop of MSH injections until mutant mice started to gain weight ([2]; mutant mice): about 10 days
loss of excess weight after two weeks (summary statement) ([2]; mutant mice treated peripherally): over 40 % of excess weight
body weight lost during one week under MSH analog treatment ([2]; mutant mice, second week of treatment): 0.5 g
difference in food intake, mutants over wildtypes, after treatment stopped for two weeks ([2]; one week, p<0.005): 11.5 g
body weight gained in one week after MSH analog treatment had been stopped for two weeks ([2]; wildtype littermates): 0.3 g
body weight gained during one week under MSH analog treatment ([2]; wildtype littermates, second week of treatment): 0.3 g
food intake during one week under MSH analog treatment ([2]; wildtype mice): 20.7 g
food intake in one week after MSH analog treatment had been stopped for two weeks ([2]; wildtype mice): 24.2 g
weight loss in wildtype mice ([2]; listed as MSH-agonist): no significant weight loss
weight loss in wildtype mice ([2]; listed as stable α-MSH agonist): did not lose significant weight
effect on coat pigmentation [3]: lost their yellowish tinge
